Test results as given in patent US4665022A (priority 1984, dated 1987).
Read-outs that look alike come from different tables or passages of the source.

Key:
[1] = target: nACh receptors in the cerebral cortex (Rattus norvegicus, UniProt Q05941); experiment: biochemical; format: binding
nicotinic binding sites = target: nicotinic binding sites; parameters: species or system rat

Sequence of nACh receptors in the cerebral cortex (Q05941 23-502): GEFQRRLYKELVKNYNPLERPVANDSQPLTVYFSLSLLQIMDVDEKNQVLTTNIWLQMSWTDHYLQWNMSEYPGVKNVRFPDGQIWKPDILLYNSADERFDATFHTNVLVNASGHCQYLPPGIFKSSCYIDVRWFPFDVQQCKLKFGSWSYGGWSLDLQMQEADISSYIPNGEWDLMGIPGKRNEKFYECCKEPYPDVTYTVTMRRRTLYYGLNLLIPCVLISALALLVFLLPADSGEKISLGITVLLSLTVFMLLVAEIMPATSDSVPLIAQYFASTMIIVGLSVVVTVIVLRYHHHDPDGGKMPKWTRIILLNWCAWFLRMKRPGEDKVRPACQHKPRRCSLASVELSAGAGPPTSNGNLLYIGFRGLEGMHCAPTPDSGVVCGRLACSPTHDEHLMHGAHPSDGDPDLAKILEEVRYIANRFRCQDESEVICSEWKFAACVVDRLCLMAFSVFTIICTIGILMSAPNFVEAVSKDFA

`C[N+](C)(C)CCOC(N)=O` [carbamyl choline] gave a Ki ([1]; read-out: KI) of 0.2 µM.

`COc1cc2c3cc1Oc1cc(ccc1O)C[C@@H]1c4c(cc(OC)c(O)c4Oc4ccc(cc4)C[C@@H]3N(C)CC2)CC[N+]1(C)C` [d-tubocurarine] showed a Ki ([1]; read-out: KI) of 0.06 µM.

`CN1[C@@H]2C[C@@H](OC(=O)[C@H](CO)c3ccccc3)C[C@H]1[C@@H]1O[C@@H]12` [scopolamine] gave a Ki [1] greater than 10000 µM.

alpha-bungarotoxin gave a Ki ([1]; read-out: KI) of 0.00012 µM and a Ki (nicotinic binding sites) of 0.00013 µM.
